Laboratory results from article PMC4875962 (Clinical Pharmacokinetics, 2015).
“Also recorded” adds a separate entry of the source. Read-outs that look alike come from different tables or passages of the source. Marks after values point to notes of the source that are not given here.

Tests used:
[1] = cited from earlier work; for dose–exposure relationship: oral doses 10–180 mg
[2] = test system: PT, INR, aPTT, intrinsic FX activity, thrombin generation, anti-FXa; details: cited from earlier work
OAT3 = details: read-out: IC50, inhibitory effect on OAT3; cited from earlier work
CYP1A2 = assay: Induction of gene expression in human hepatocytes; details: data on file
[3] = 60 mg twice daily, elderly healthy subjects; cited from earlier work
OCT2 = details: cited from earlier work
[4] = cited from earlier work
[5] = cited from earlier work; remark: listed apart in the source
[6] = single dose, vs matched healthy controls; cited from earlier work
OCT1 = details: read-out: IC50, inhibitory effect on OCT1; cited from earlier work
[7] = cited from earlier work; remark: listed apart in the source
OAT1 = details: cited from earlier work
[8] = In vitro plasma protein binding
[9] = intravenous 30 mg, healthy subjects
[10] = single oral dose of edoxaban 60 mg, healthy subjects, mean ± SD

CN1CCc2nc(C(=O)N[C@@H]3C[C@@H](C(=O)N(C)C)CC[C@@H]3NC(=O)C(=O)Nc3ccc(Cl)cn3)sc2C1 [edoxaban]
effect of age, sex and race on edoxaban pharmacokinetics ([1]; after renal function is taken into account): do not affect
contribution of any individual metabolic pathway to total clearance [1]: ≤ 10%
inter- and intra-subject variability in clearance and volume of distribution [1]: < 30%
metabolism by CYP3A4 (CYP3A4/5) (share of clearance) [1]: < 10%
renal clearance as share of total clearance [1]: approximately 50%
Renal clearance ([1]; healthy subjects): about 10.7 ± 3.00 L/h
metabolism by CES1 (share of clearance) ([1]; human-specific metabolite): < 10%
CL total body clearance [1, 9]: approximately 22 L/h
V ss steady-state volume of distribution [1, 9]: approximately 107 L
V z volume of distribution based on the terminal phase [1, 9]: 205 ± 64.8 L
CL total body clearance ([1]; intravenous 30 mg, healthy subjects, listed as Edoxaban): 21.8 ± 3.03 L/h
dose–exposure relationship ([1]; healthy subjects): approximately dose proportional; also recorded: slightly less-than-dose-proportional
dose–exposure relationship ([1]; healthy subjects, listed as Edoxaban): generally linear and dose-proportional
terminal elimination half-life ([1]; oral, healthy subjects): 10 to 14 h
CLR (oral) ([1]; single oral dose of edoxaban 60 mg, healthy subjects, N = 32): 9.95 ± 2.32^a L/h
AUC∞ (oral) [1, 10]: 1766 ± 435.3 ng·h/mL
C max (oral) [1, 10]: 256 ± 87.7 ng/mL
t ½ (oral) [1, 10]: 11.5 ± 5.63 h
t max (oral) ([1]; single oral dose of edoxaban 60 mg, healthy subjects, median [minimum–maximum]): 1.02 [0.500–3.00] h
effect on PT, INR, aPTT or intrinsic FX activity ([2]; coadministration of low-dose aspirin (100 mg)): did not significantly affect
effect on anti-FXa when both drugs coadministered ([2]; edoxaban 60 mg and subcutaneous enoxaparin 1 mg/kg): additive
IC50 (OAT3): ≥ 100 µM
induction of gene expression of CYP1A2 (CYP1A2): do not induce
rebound effect following cessation of dosing [3]: no evidence of a rebound effect
substrate of OCT2 (OCT2): is not a substrate
effect of ABCB1 genotype (C3435T) on pharmacokinetics [4]: no effect
increase of mean peak exposure (Cmax) in the fed state vs fasted state ([5]; 60 mg single dose): 6–22%
increase of total exposure with food ([5]; 60 mg single dose): 12–15%
effect of food on total exposure [5]: Coadministration with food does not affect total edoxaban exposure
effect of mild or moderate hepatic impairment on peak or total exposure [6]: did not significantly impact
IC50 (OCT1): ≥ 100 µM
partition in blood [7]: 46%
substrate of OAT1 (OAT1): is not a substrate
fraction unbound [8]: ~0.45
